Data published in patent publication US8466203B2, “Method of stabilizing human eye tissue by reaction with nitrite and related agents such as nitro compounds” (priority 2006, dated 2013).
Several values for one entry are separate records, joined by “and”; a condition that tells them apart may be missing. Equal values may be shown once. Read-outs that look alike come from different tables or passages of the source.

Assays:
ARPE-19 cells = system: ARPE-19 cells
Excerpt: A cytotoxicity study was undertaken to obtain an impression of the level of cellular tolerance to these compounds. For pilot experiments ARPE-19 cells were used. This is an immortal human retinal pigment epithelial cell line commonly used for experiments related to macular degeneration. In these pilot studies, the ARPE-19 cells serve as a surrogate for cytotoxicity experiments. Primary cultures of bovine corneal endothelial cells were also used in the cytotoxicity studies described. Bovine corneal cells have more direct relevance for evaluating potential cytotoxic effects during cross-linking of living eye tissue.
ARPE-19 cells were grown to 80% confluence in 96 well tissue culture plates. The cells were then exposed to varying concentrations of NaNO2 and 2-nitroethanol in their culture medium and evaluated for cell death using trypan blue (TB) staining (0.4% for 5 min) after 24 hrs.

porcine cornea [1] = experiment: Light transmission of cross-linked corneo-scleral complexes; conditions: 10 mM, 96 hrs incubation
Protocol: Following a 96 hrs incubation period at 10 mM, the corneo-scleral complexes were mounted between 2 pieces of quartz, previously determined to have no ultraviolet absorption. […] The sample was then mounted in a vertical, adjustable stage apparatus specifically designed to accommodate a PC 1000 Fibre Optic Spectrometer (Ocean Optics, Inc.). A xenon lamp was used as a light source and was connected to the upper half of the stage. The lower half was connected to a high sensitivity CCD mounted on a card which is installed in a PC computer. The CCD array detector captures a full wavelength spectrum (i.e. 200-1000 nm).
The absorption spectrum for each sample was recorded and exported into Microcal Origin 6.1 for processing. […] The scattering component was subtracted from the observed absorption spectrum by first fitting the scattering (non-absorption) portion of the spectrum (e.g. 700-800 nm) to the formula A=aλ^b, where A is the absorbance, λ is the wavelength, b is the order of the relationship between absorbance and wavelength, and a is a constant. The background signal due to scattering for all other wavelengths is then estimated using the coefficients determined from the fit. […] After scatter correction, the transmission spectrum for each absorption spectrum was calculated according to the Beer-Lambert law (T=10^−A×100%), where T is the transmission and A is the absorbance at each wavelength. […]

porcine sclera = experiment: Yellowing of cross-linked scleral tissue
Protocol: Additional β-nitro alcohols related to 2-nitroethanol were also tested for scleral cross-linking efficacy. In addition to 2-nitroethanol, there was 2-nitro-1-propanol, 3-nitro-2-pentanol, and 2-nitrophenol. […] This effect was not blocked by addition of equimolar urea (Table 5).

porcine cornea [2] = experiment: Yellowing of cross-linked porcine cornea; conditions: 100 mM concentration
Protocol: These images were taken from tissues cross-linked with nitrite and the β-nitro alcohols 2-nitroethanol, 2-nitro-1-propanol, and […], for 48 hrs. […] Fresh porcine corneal strips and corneoscleral complexes were obtained within 6 hrs of sacrifice and incubated at 37° C. in buffered solutions (pH 7.4) containing 20% Dextran (T500) and either 100 mM NaNO2 or 100 mM of one each of the β-nitro alcohols. After 48 hrs, the following images were obtained. […] FIGS. 13 (B and D)
As such, the effects on corneal light transmission induced by cross-linking with β-nitro alcohols was evaluated using a method adopted from Dillon et al 2004.

[3] = system: primary bovine corneal endothelial cells; conditions: for Cytotoxic threshold (using trypan blue): 48 hrs exposure
human sclera = experiment: Thermal shrinkage temperature analysis of human scleral strips; conditions: pH 7.4, 37° C., 96 hrs
Excerpt: Thermal shrinkage temperature or denaturation temperature (Ts) is a technique that has been used for decades in studying collagen cross-linking. As collagen fibers are progressively heated, a threshold temperature is reached at which point disruption of hydrogen bonding in the collagen molecule triple helix occurs, resulting in unwinding of the triple helices. The denaturation of tertiary protein structure results in a rapid shrinkage of the tissue of up to 80%. This phenomenon can be expressed in various ways including temperature of onset of tissue shrinkage, temperature at maximal tissue shrinkage, and temperature at 50% of maximal tissue shrinkage, for example. In addition, differential scanning calorimetry (DSC) is related to thermal shrinkage temperature analysis and is widely used to evaluate biomaterial cross-linking. Thermal shrinkage temperature is essentially a simplified version of DSC and can be used effectively to screen the cross-linking efficacy of compounds. For the purposes of this study, the onset of shrinkage is considered the Ts and the temperature at which 50% of maximal shrinkage has occurred is T50. Graphs depicting the relationship between degree of shrinkage and temperature indicate differences in degree of cross-linking between groups. Thus, stabilization of collagen fiber structures through non-enzymatic cross-linking increases Ts and T50. A 5° C. upward shift in Ts for the anterior corneal stroma has been shown for the UVR cross-linking method (Spoerl, E., et al., 2004).
A semi-automated system has been developed which increases the efficiency and accuracy of Ts data collection. This system can perform multiple Ts assays in succession, allowing rapid screening of a number of potential cross-linking agents and conditions. […] Inlet and outlet fittings allow for constant circulation of heated water which is modulated by a digitally controlled water bath equipped with a water pump. The entire box is placed on a digital photo scanner connected to a Windows based computer. Beginning at 50° C. the temperature is raised at a rate of 1° C./min and serial scans are taken at every degree increase in temperature up to 80° C. Control pig corneas shrink at approximately 63° C. and cross-linked tissue at higher temperatures. As the tissue shrinks, the images are captured by the scanner. The image files are later analyzed for 2-dimensional area using NIH Image J software and % shrinkage calculations are made using Microsoft Excel for graphing purposes. This method obviates the need for removal of tissue pieces from the water bath with manual micrometer measurements as described by the UVR group (Spoerl, E., et al., 2004). Thus, the labor involved in acquiring data is lessened and the accuracy using image analysis is improved.
Shrinkage temperature (Ts) of porcine cornea (FIG. 16) and porcine and human sclera (FIGS. 17 and 18) cross-linked with 2-nitroethanol. […] Following reaction, thermal shrinkage temperature analysis was performed (Table 4). Several compounds were studied including NaNO2, 2-nitroethanol, 2-nitro-1-propanol, 3-nitro-2-pentanol, 2-nitrophenol, 2-nitroethane, 2-aminoethanol, isopentyl nitrite, DPTA/NO, DETA/NO, and urea, a nitrous acid trap.

O=[N+]([O-])CCO [2-nitroethanol]
trypan blue (TB) uptake (ARPE-19 cells; 1 mM, 24 hrs): no TB was taken up
trypan blue (TB) uptake (ARPE-19 cells; 10 mM, 24 hrs): all of the cells took up TB
cytotoxic threshold (ARPE-19 cells; 24 hrs, trypan blue): > 1 mM and 1 to 10 mM
highest tolerated level (ARPE-19 cells; ARPE-19): 1 mM
tolerable level (ARPE-19 cells; ARPE-19): 0.0091%
decrease in light transmission, 400-500 nm blue light region (porcine cornea [1]): 3.6%
propensity to induce tissue yellowing (porcine sclera): greatest propensity to induce tissue yellowing
yellowing effect (porcine cornea [2]): significant yellowing effect
Cytotoxic threshold (using trypan blue) ([3]; 0.1 mM): −
Cytotoxic threshold (using trypan blue) ([3]; 0.5 mM): −
Cytotoxic threshold (using trypan blue) ([3]; 0.75 mM): −
Cytotoxic threshold (using trypan blue) ([3]; 1 mM): −
Cytotoxic threshold (using trypan blue) ([3]; 2 mM): −
Cytotoxic threshold (using trypan blue) ([3]; 3 mM): +
Cytotoxic threshold (using trypan blue) ([3]; 5 mM): +
Cytotoxic threshold (using trypan blue) ([3]; 7 mM): +
Cytotoxic threshold (using trypan blue) ([3]; 10 mM): +
tolerable level ([3]; bovine corneal endothelial cells): 0.0273%
highest tolerated level ([3]; bovine corneal endothelial cells, 48 hrs): 2 mM and 3 mM
T50 (temperature at 50% of maximal shrinkage) (human sclera; 1 mM): 66.3 °C
T50 Δ (change in 50% shrinkage temperature compared to control) (human sclera; 1 mM): 0.3 °C
Ti (temperature at 1% absolute shrinkage) (human sclera; 1 mM): 60.8 °C
T50 (temperature at 50% of maximal shrinkage) (human sclera; 10 mM): 68.2 °C
T50 Δ (change in 50% shrinkage temperature compared to control) (human sclera; 10 mM): 2.2 °C
Ti (temperature at 1% absolute shrinkage) (human sclera; 10 mM): 64.4 °C
T50 (temperature at 50% of maximal shrinkage) (human sclera; 100 mM): 73.5 °C
T50 Δ (change in 50% shrinkage temperature compared to control) (human sclera; 100 mM): 7.5 °C
Ti (temperature at 1% absolute shrinkage) (human sclera; 100 mM): 71.7 °C
